# Several values for one entry are separate records, joined by “and”; a condition that tells them apart may be missing. Equal values may be shown once. Toxic doses and inconclusive results are not listed.
# System: P388 leukemia ip, CD2F1 mice, survival T/C
# Test: NCI In Vivo Anticancer Drug Screen. Data for tumor model P388 Leukemia (intraperitoneal) in CD2F1 (CDF1) mice
# Conditions: endpoint: median survival time, higher = longer survival
# How it was run: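 Mice carrying the transplanted tumor received test compound or vehicle. Survival was recorded in each group, and the value is the treated-group measurement divided by that of the vehicle-treated control group.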
# [1] = dose: 50.0 mg/kg/injection, schedule: Q01DX009 (ip), vehicle: saline
# [2] = dose: 100.0 mg/kg/injection, schedule: Q01DX009 (ip), vehicle: saline
# [3] = dose: 200.0 mg/kg/injection, schedule: Q01DX009 (ip), vehicle: saline
# [4] = dose: 60.0 mg/kg/injection, schedule: Q01DX005 (ip), vehicle: Klucel (hydroxypropylcellulose) (HPC)
# [5] = dose: 120.0 mg/kg/injection, schedule: Q01DX005 (ip), vehicle: Klucel (hydroxypropylcellulose) (HPC)
# [6] = dose: 240.0 mg/kg/injection, schedule: Q01DX005 (ip), vehicle: Klucel (hydroxypropylcellulose) (HPC)
# [7] = dose: 60.0 mg/kg/injection, schedule: Q01DX005 (ip), vehicle: saline with Tween-80
# [8] = dose: 120.0 mg/kg/injection, schedule: Q01DX005 (ip), vehicle: saline with Tween-80
# [9] = dose: 240.0 mg/kg/injection, schedule: Q01DX005 (ip), vehicle: saline with Tween-80
# [10] = dose: 100.0 mg/kg/injection, schedule: Q04DX003 (ip), vehicle: Klucel (hydroxypropylcellulose) (HPC)
# [11] = dose: 100.0 mg/kg/injection, schedule: Q01DX009 (ip), vehicle: saline with Tween-80
# [12] = dose: 200.0 mg/kg/injection, schedule: Q04DX003 (ip), vehicle: saline with Tween-80
# [13] = dose: 50.0 mg/kg/injection, schedule: Q01DX005 (ip), vehicle: Klucel (hydroxypropylcellulose) (HPC)
# [14] = dose: 100.0 mg/kg/injection, schedule: Q01DX005 (ip), vehicle: Klucel (hydroxypropylcellulose) (HPC)
# [15] = dose: 200.0 mg/kg/injection, schedule: Q01DX005 (ip), vehicle: Klucel (hydroxypropylcellulose) (HPC)
# [16] = dose: 50.0 mg/kg/injection, schedule: Q01DX009 (ip), vehicle: Klucel (hydroxypropylcellulose) (HPC)
# [17] = dose: 100.0 mg/kg/injection, schedule: Q01DX009 (ip), vehicle: Klucel (hydroxypropylcellulose) (HPC)
# [18] = dose: 200.0 mg/kg/injection, schedule: Q01DX009 (ip), vehicle: Klucel (hydroxypropylcellulose) (HPC)
smiles,measurement,setting,value
CN=C(NC)c1ccc(NC(=O)c2ccc(C(=O)Nc3ccc(C(=NC)NC)cc3)c(Cl)c2)cc1,T/C,"dose: 18.0 mg/kg/injection, schedule: Q01DX010 (ip), vehicle: saline",218 % of control
same,T/C,"dose: 27.0 mg/kg/injection, schedule: Q01DX010 (ip), vehicle: saline",254 % of control
same,T/C,"dose: 40.0 mg/kg/injection, schedule: Q01DX010 (ip), vehicle: saline",209 % of control
same,T/C,"dose: 60.0 mg/kg/injection, schedule: Q01DX010 (ip), vehicle: saline",154 % of control
O=S1(=O)CCN(Cc2ccccn2)CC1,T/C,[1],94 % of control
same,T/C,[2],94 % of control
same,T/C,[3],91 % of control
O=S(=O)(O)SCCCSS(=O)(=O)O,T/C,[1],100 % of control
same,T/C,[2],99 % of control
same,T/C,[3],102 % of control
COc1cc2c(cc1O)C(=O)c1[nH]c3ccccc3c1CC2,T/C,"dose: 100.0 mg/kg/injection, schedule: Q04DX003 (ip), vehicle: saline",107 % of control
same,T/C,"dose: 200.0 mg/kg/injection, schedule: Q04DX003 (ip), vehicle: saline",107 % of control
same,T/C,"dose: 400.0 mg/kg/injection, schedule: Q04DX003 (ip), vehicle: saline",101 % of control
C=C1C(=O)OC2C(OC(=O)CC(C)C)CCCC12 (stereo not given),T/C,[4],94 % of control
same,T/C,[5],92 % of control
same,T/C,[6],92 % of control
CCN(CC)C(=O)Oc1cc(C(=O)N(CC)CC)c(OC(=O)N(CC)CC)cc1C(=O)N(CC)CC,T/C,[7],101 % of control
same,T/C,[8],92 % of control
same,T/C,[9],89 % of control
CCC1COC(COCc2ccccc2)=N1 (stereo not given),T/C,"dose: 100.0 mg/kg/injection, schedule: Q01DX002 (ip), vehicle: saline",98 % of control
same,T/C,"dose: 200.0 mg/kg/injection, schedule: Q01DX002 (ip), vehicle: saline",95 % of control
same,T/C,"dose: 400.0 mg/kg/injection, schedule: Q01DX002 (ip), vehicle: saline",95 % of control
O=c1c2ccccc2[nH]c2c(O)c3c(=O)c4ccccc4[nH]c3cc12,T/C,[10],102 % of control
same,T/C,"dose: 200.0 mg/kg/injection, schedule: Q04DX003 (ip), vehicle: Klucel (hydroxypropylcellulose) (HPC)",92 % of control
same,T/C,"dose: 400.0 mg/kg/injection, schedule: Q04DX003 (ip), vehicle: Klucel (hydroxypropylcellulose) (HPC)",102 % of control
COCCOCOCCCC#C[Si](C)(C)C,T/C,[7],100 % of control
same,T/C,[8],106 % of control
same,T/C,[9],106 % of control
CCN(CC)CCCCNc1ccc(NCCCCN(CC)CC)c2c1C(=O)c1ccccc1C2=O,T/C,"dose: 3.12 mg/kg/injection, schedule: Q01DX009 (ip), vehicle: saline",90 % of control
same,T/C,"dose: 6.25 mg/kg/injection, schedule: Q01DX009 (ip), vehicle: saline",90 % of control
same,T/C,"dose: 12.5 mg/kg/injection, schedule: Q01DX009 (ip), vehicle: saline with Tween-80",118 % of control
same,T/C,"dose: 12.5 mg/kg/injection, schedule: Q01DX009 (ip), vehicle: saline",97 % of control
same,T/C,"dose: 25.0 mg/kg/injection, schedule: Q01DX009 (ip), vehicle: saline with Tween-80",115 % of control
same,T/C,"dose: 50.0 mg/kg/injection, schedule: Q01DX009 (ip), vehicle: saline with Tween-80",120 % of control
same,T/C,[1],91 % of control
same,T/C,[2],100 % of control
O=C1c2ccccc2C(=O)N1CCn1[nH]c(=O)c2ccccc2c1=O,T/C,[7],99 % of control
same,T/C,[8],90 % of control
same,T/C,[9],96 % of control
CCOC(=O)c1[nH]cnc1/N=N/N(C)C,T/C,[11],90 % of control
same,T/C,"dose: 150.0 mg/kg/injection, schedule: Q04DX003 (ip), vehicle: saline with Tween-80",120 % of control
same,T/C,[12],150 % of control
CC(/C=N\NC(=S)SCc1ccccc1)=N/NC(N)=S,T/C,"dose: 100.0 mg/kg/injection, schedule: Q01DX001 (ip), vehicle: saline",106 % of control
same,T/C,"dose: 200.0 mg/kg/injection, schedule: Q01DX001 (ip), vehicle: saline",106 % of control
same,T/C,"dose: 400.0 mg/kg/injection, schedule: Q01DX001 (ip), vehicle: saline",103 % of control
CCOc1cccc(C=N)c1O,T/C,[7],111 % of control
same,T/C,[8],105 % of control
COc1cc(NC(C)CCCN)c2ncccc2c1 (stereo not given),T/C,"dose: 12.5 mg/kg/injection, schedule: Q01DX009 (ip), vehicle: saline sonified",118 % of control
same,T/C,"dose: 25.0 mg/kg/injection, schedule: Q01DX009 (ip), vehicle: saline sonified",109 % of control
same,T/C,"dose: 50.0 mg/kg/injection, schedule: Q01DX009 (ip), vehicle: saline sonified",90 % of control
CCN(CC)CCNC(=O)c1nn(-c2ccccc2)c2c1CCCc1ccccc1-2,T/C,"dose: 25.0 mg/kg/injection, schedule: Q04DX003 (ip), vehicle: Klucel (hydroxypropylcellulose) (HPC)",101 % of control
same,T/C,"dose: 50.0 mg/kg/injection, schedule: Q04DX003 (ip), vehicle: Klucel (hydroxypropylcellulose) (HPC)",101 % of control
same,T/C,[10],99 % of control and 92 % of control
CCOP(=O)(OCC)C(C)OC (stereo not given),T/C,[1],100 % of control
same,T/C,[2],100 % of control
same,T/C,[3],106 % of control
same,T/C,"dose: 400.0 mg/kg/injection, schedule: Q01DX009 (ip), vehicle: saline",100 % of control
CCc1nn2c(=O)nc(SC)nc2s1,T/C,"dose: 12.5 mg/kg/injection, schedule: Q04DX003 (ip), vehicle: saline with Tween-80",102 % of control
same,T/C,"dose: 25.0 mg/kg/injection, schedule: Q04DX003 (ip), vehicle: saline with Tween-80",100 % of control
same,T/C,"dose: 50.0 mg/kg/injection, schedule: Q04DX003 (ip), vehicle: saline with Tween-80",102 % of control
O=c1oc(-c2cccc([N+](=O)[O-])c2)ns1,T/C,"dose: 6.25 mg/kg/injection, schedule: Q01DX009 (ip), vehicle: Klucel (hydroxypropylcellulose) (HPC)",101 % of control
same,T/C,"dose: 12.5 mg/kg/injection, schedule: Q01DX009 (ip), vehicle: Klucel (hydroxypropylcellulose) (HPC)",97 % of control
same,T/C,"dose: 25.0 mg/kg/injection, schedule: Q01DX009 (ip), vehicle: Klucel (hydroxypropylcellulose) (HPC)",109 % of control
O=C1C(=O)N(c2ccccc2)[C@@]2(c3ccccc3)C(=Nc3ccccc3)OC(c3ccccc3)=C12,T/C,[4],90 % of control
same,T/C,[5],90 % of control
same,T/C,[6],88 % of control
CC1=C(C)NC(C)=C(C)N1,T/C,[1],97 % of control
same,T/C,[2],95 % of control
same,T/C,[3],97 % of control
COc1ccc(CCN2C=CC(C#N)C=C2)cc1OC,T/C,[13],91 % of control
same,T/C,[14],101 % of control
same,T/C,[15],98 % of control
CN(C)C(=O)ONC(=O)c1ccccc1,T/C,[16],105 % of control
same,T/C,[17],109 % of control
same,T/C,[18],108 % of control
CCCCCCCCCCCCCCCCOc1ccccc1CNc1cc(Cl)ccc1Cl,T/C,[11],100 % of control
same,T/C,"dose: 100.0 mg/kg/injection, schedule: Q04DX003 (ip), vehicle: saline with Tween-80",100 % of control
same,T/C,"dose: 200.0 mg/kg/injection, schedule: Q01DX009 (ip), vehicle: saline with Tween-80",91 % of control
same,T/C,[12],100 % of control
same,T/C,"dose: 400.0 mg/kg/injection, schedule: Q01DX009 (ip), vehicle: saline with Tween-80",100 % of control
same,T/C,"dose: 400.0 mg/kg/injection, schedule: Q04DX003 (ip), vehicle: saline with Tween-80",86 % of control
CN(C)/N=C1\C(=O)Nc2c(Cl)cc(Cl)cc21,T/C,[16],94 % of control
same,T/C,[17],94 % of control
same,T/C,[18],94 % of control
Cc1ccc(S(=O)(=O)OC2CN(C)CC=C2c2ccccc2)cc1 (stereo not given),T/C,"dose: 12.5 mg/kg/injection, schedule: Q01DX005 (ip), vehicle: Klucel (hydroxypropylcellulose) (HPC)",105 % of control
same,T/C,"dose: 25.0 mg/kg/injection, schedule: Q01DX005 (ip), vehicle: Klucel (hydroxypropylcellulose) (HPC)",104 % of control
same,T/C,[13],99 % of control
same,T/C,[14],99 % of control
COC1=CC(=O)OC1n1ccc(OC)nc1=O (stereo not given),T/C,[13],100 % of control
same,T/C,[14],95 % of control
same,T/C,[15],95 % of control
CCOC(=O)/C(=C\Nc1cccc(OCc2ccccc2)c1)NC(=O)c1ccccc1,T/C,[16],87 % of control
same,T/C,[17],88 % of control
same,T/C,[18],86 % of control and 96 % of control
same,T/C,"dose: 400.0 mg/kg/injection, schedule: Q01DX009 (ip), vehicle: Klucel (hydroxypropylcellulose) (HPC)",97 % of control

# Source: PubChem BioAssay AID330 (DTP/NCI, 2004)
